The source of these data is ChEMBL document CHEMBL1135887, “Substituted pentacyclic carbazolones as novel muscarinic allosteric agents: synthesis and structure-affinity and cooperativity relationships” (J Med Chem, 2002).

Experiment [1] has as its target T1, Muscarinic acetylcholine receptor M1 (Homo sapiens) (UniProt P11229).
T1 sequence (whole entry): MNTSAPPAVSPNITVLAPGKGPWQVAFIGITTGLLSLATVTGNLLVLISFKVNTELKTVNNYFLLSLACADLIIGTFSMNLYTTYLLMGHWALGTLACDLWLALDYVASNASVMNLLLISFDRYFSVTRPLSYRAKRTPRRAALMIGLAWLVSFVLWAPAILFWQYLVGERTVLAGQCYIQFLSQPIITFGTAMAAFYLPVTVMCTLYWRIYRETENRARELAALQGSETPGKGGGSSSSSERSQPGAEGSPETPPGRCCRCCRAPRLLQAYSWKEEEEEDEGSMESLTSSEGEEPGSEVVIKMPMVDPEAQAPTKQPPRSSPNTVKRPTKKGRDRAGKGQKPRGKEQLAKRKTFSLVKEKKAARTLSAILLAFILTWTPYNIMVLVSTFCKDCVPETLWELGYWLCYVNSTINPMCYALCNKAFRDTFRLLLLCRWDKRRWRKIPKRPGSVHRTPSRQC
In words: Logarithm of affinity (log 1/M) at the free muscarinic acetylcholine receptor M1 by using semiquantitative equilibrium and off-rate assay.

In experiment [2] the target is T1, Muscarinic acetylcholine receptor M1 (Homo sapiens). In words: Subtype selectivity and the cooperativity with N-methyl Scopolamine (NMS) at Muscarinic acetylcholine receptor M1; activity value ranges from 0.81-1.19.
In experiment [3] the target is T2, Muscarinic acetylcholine receptor M2 (Homo sapiens) (UniProt P08172).
T2 sequence (whole entry): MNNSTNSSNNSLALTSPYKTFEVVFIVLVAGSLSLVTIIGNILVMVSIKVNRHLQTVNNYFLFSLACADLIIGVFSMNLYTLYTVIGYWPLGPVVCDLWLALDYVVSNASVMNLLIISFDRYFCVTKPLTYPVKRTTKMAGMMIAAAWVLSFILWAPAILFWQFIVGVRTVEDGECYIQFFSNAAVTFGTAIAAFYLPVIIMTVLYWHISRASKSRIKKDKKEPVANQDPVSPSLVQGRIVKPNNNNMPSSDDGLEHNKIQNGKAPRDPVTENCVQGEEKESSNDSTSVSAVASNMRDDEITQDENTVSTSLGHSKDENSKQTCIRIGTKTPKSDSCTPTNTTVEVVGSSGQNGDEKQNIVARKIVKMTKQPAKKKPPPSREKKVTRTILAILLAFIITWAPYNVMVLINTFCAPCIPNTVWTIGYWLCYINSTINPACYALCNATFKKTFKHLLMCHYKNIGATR
Description: Subtype selectivity and the cooperativity with N-methyl Scopolamine (NMS) at Muscarinic acetylcholine receptor M2.

The target of experiment [4] is Muscarinic acetylcholine receptor M3 (Homo sapiens) (UniProt P20309). Description: Logarithm of affinity (log 1/M) at the (N-methyl Scopolamine) NMS-liganded muscarinic acetylcholine receptor M3 by using semiquantitative equilibrium and off-rate assay.
For experiment [5], the target named is T3, Muscarinic acetylcholine receptor M4 (Homo sapiens) (UniProt P08173).
T3 sequence (whole entry): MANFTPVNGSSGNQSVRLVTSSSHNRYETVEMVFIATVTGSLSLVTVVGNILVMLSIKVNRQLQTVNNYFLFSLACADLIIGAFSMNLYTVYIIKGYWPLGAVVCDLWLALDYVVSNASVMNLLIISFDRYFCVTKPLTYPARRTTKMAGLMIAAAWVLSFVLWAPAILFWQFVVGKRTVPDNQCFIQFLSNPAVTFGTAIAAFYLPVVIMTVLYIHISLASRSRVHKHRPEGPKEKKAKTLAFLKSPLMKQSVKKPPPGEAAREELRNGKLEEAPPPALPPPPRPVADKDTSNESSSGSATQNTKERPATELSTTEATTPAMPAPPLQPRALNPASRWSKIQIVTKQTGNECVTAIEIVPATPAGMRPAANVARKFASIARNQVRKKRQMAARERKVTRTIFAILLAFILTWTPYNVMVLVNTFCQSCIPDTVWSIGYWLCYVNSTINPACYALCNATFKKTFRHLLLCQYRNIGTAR
Description: Subtype selectivity and the cooperativity with N-methyl Scopolamine (NMS) at Muscarinic acetylcholine receptor M4.

Experiment [6] has as its target Muscarinic acetylcholine receptor M3 (Homo sapiens) (UniProt P20309). In words: Logarithm of affinity (log 1/M) at the muscarinic acetylcholine receptor M3 by using semiquantitative equilibrium and off-rate assay.
The target of experiment [7] is T2, Muscarinic acetylcholine receptor M2 (Homo sapiens). Description: Logarithm of affinity (log 1/M) at the (N-methyl Scopolamine) NMS-liganded muscarinic acetylcholine receptor M2 by using semiquantitative equilibrium and off-rate assay.
Experiment [8] has as its target Muscarinic acetylcholine receptor M3 (Homo sapiens) (UniProt P20309). Description: Subtype selectivity and the cooperativity with N-methyl Scopolamine (NMS) at Muscarinic acetylcholine receptor M3; activity range is 0.81-1.19.
Experiment [9] deals with T1, Muscarinic acetylcholine receptor M1 (Homo sapiens). Description: Logarithm of affinity (log 1/M) at the (N-methyl Scopolamine) NMS-liganded muscarinic acetylcholine receptor M1 by using semiquantitative equilibrium and off-rate assay.
Experiment [10] addresses T2, Muscarinic acetylcholine receptor M2 (Homo sapiens). Description: Logarithm of affinity (log 1/M) at the muscarinic acetylcholine receptor M2 by using semiquantitative equilibrium and off-rate assay.
Experiment [11] has as its target T3, Muscarinic acetylcholine receptor M4 (Homo sapiens). Description: Logarithm of affinity (log 1/M) at the (N-methyl Scopolamine) NMS-liganded muscarinic acetylcholine receptor M4 by using semiquantitative equilibrium and off-rate assay.
The target is the same in experiment [12]. In words: Logarithm of affinity (log 1/M) at the muscarinic acetylcholine receptor M4 by using semiquantitative equilibrium and off-rate assay.
In experiment [13] the target is T2, Muscarinic acetylcholine receptor M2 (Homo sapiens). In words: Subtype selectivity and the cooperativity with N-methyl Scopolamine (NMS) at Muscarinic acetylcholine receptor M2; Activity range is 0.81-1.19.
Experiment [14] concerns the target Muscarinic acetylcholine receptor M3 (Homo sapiens) (UniProt P20309). In words: Subtype selectivity and the cooperativity with N-methyl Scopolamine (NMS) at muscarinic acetylcholine receptor M3; Activity range is 0.2-0.8.
Experiment [15] deals with T1, Muscarinic acetylcholine receptor M1 (Homo sapiens). Description: Subtype selectivity and the cooperativity with N-methyl Scopolamine (NMS) at Muscarinic acetylcholine receptor M1; Activity range is 0.2-0.8.
Experiment [16] deals with T3, Muscarinic acetylcholine receptor M4 (Homo sapiens). In words: Subtype selectivity and the cooperativity with N-methyl Scopolamine (NMS) at Muscarinic acetylcholine receptor M4; Activity range is 0.81-1.19.
For experiment [17], the target named is Muscarinic acetylcholine receptor M3 (Homo sapiens) (UniProt P20309). Description: Subtype selectivity and the cooperativity with N-methyl Scopolamine (NMS) at Muscarinic acetylcholine receptor M3; […].
In experiment [18] the target is T1, Muscarinic acetylcholine receptor M1 (Homo sapiens). Description: Subtype selectivity and the cooperativity with N-methyl Scopolamine (NMS) at Muscarinic acetylcholine receptor M1 Activity range is 0.2-0.8.
Experiment [19] concerns the target T2, Muscarinic acetylcholine receptor M2 (Homo sapiens). In words: Subtype selectivity and the cooperativity with N-methyl Scopolamine (NMS) at Muscarinic acetylcholine receptor M2; Activity range is 1.2-3.
Experiment [20] deals with T1, Muscarinic acetylcholine receptor M1 (Homo sapiens). Description: Subtype selectivity and the cooperativity with N-methyl Scopolamine (NMS) at Muscarinic acetylcholine receptor M1.
Experiment [21] addresses T3, Muscarinic acetylcholine receptor M4 (Homo sapiens). In words: Subtype selectivity and the cooperativity with N-methyl Scopolamine (NMS) at Muscarinic acetylcholine receptor M4; Activity range is 0.2-0.8.
In experiment [22] the target is Muscarinic acetylcholine receptor M3 (Homo sapiens) (UniProt P20309). Description: Subtype selectivity and the cooperativity with N-methyl Scopolamine (NMS) at Muscarinic acetylcholine receptor M3.
The target of experiment [23] is T3, Muscarinic acetylcholine receptor M4 (Homo sapiens). In words: Subtype selectivity and the cooperativity with N-methyl Scopolamine (NMS) at Muscarinic acetylcholine receptor M4; Activity range is 081-1.19.
Experiment [24] has as its target T2, Muscarinic acetylcholine receptor M2 (Homo sapiens). In words: Subtype selectivity and the cooperativity with N-methyl Scopolamine (NMS) at Muscarinic acetylcholine receptor M2; activity range is 1.2-3.
The target in experiment [25] is T3, Muscarinic acetylcholine receptor M4 (Homo sapiens). Description: Subtype selectivity and cooperativity with N-methyl Scopolamine (NMS) at Muscarinic acetylcholine receptor M4; Activity range is 1.2-3.
The target of experiment [26] is T1, Muscarinic acetylcholine receptor M1 (Homo sapiens). Description: Subtype selectivity and the cooperativity with N-methyl Scopolamine (NMS) at Muscarinic acetylcholine receptor M1; Activity range is 1.81-1.19.
Experiment [27] has the same target. In words: Subtype selectivity and the cooperativity with N-methyl Scopolamine (NMS) at Muscarinic acetylcholine receptor M1; Activity range is 0.81-1.19.
The target of experiment [28] is T3, Muscarinic acetylcholine receptor M4 (Homo sapiens). In words: Subtype selectivity and the cooperativity with N-methyl Scopolamine (NMS) at Muscarinic acetylcholine receptor M4; Activity range is 1.2-3.

Each structure is given as a SMILES string.

Chain of Muscarinic acetylcholine receptor M3 (Homo sapiens) (P20309 whole entry, looked up): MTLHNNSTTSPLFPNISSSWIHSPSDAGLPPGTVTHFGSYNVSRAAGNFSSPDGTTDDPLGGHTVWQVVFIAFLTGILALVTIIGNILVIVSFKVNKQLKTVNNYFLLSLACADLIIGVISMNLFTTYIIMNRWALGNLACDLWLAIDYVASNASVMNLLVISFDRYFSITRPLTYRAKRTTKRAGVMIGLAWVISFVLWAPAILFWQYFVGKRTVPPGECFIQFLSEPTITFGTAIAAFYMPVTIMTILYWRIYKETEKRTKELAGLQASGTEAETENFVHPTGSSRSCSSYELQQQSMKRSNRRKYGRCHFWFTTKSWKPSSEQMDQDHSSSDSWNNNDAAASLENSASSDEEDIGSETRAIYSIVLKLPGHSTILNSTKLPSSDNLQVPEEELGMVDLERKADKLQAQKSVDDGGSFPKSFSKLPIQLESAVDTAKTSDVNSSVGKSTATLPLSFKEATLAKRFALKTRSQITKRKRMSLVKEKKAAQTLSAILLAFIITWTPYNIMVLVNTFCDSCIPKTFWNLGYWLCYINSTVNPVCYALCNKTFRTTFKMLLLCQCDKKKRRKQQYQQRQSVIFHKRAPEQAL

On to `COc1cc2c3c4c(c(COC(C)=O)c5c3n(c2cc1OC)C(=O)CC5)CNCC4`, for which the Log 1/M in experiment [1] came to 6.09; in [4], 5.85; in [6] it was 5.69; in experiment [7] it was 7.21; in [9], 6.16; in experiment [10] it was 6.63. Moreover, the Log 1/M in [11] was 6.55; in [12], 5.91. The Cooperativity is 1.19 in experiment [2], more than 3 in [3], more than 3 in experiment [5] and 1.19 in experiment [8].

Regarding `O=C1CCc2cc3c(c4c5ccc(O)cc5n1c24)CNCC3`, the Log 1/M amounted to 6.59 in experiment [1]; 5.23 in experiment [4]; 5.6 in [6]; 5.64 in experiment [7]; 6.13 in experiment [9]; 5.6 in [10]. The values for the Log 1/M in experiment [11] and in experiment [12] were 5.65 and 5.52, respectively. For the same molecule, the Cooperativity in experiment [13] is 1.19; in [14] it was 0.8; in experiment [15], 0.8; in experiment [16], 1.19.

As to `COc1cccc2c1c1c3c(cc4c1n2C(=O)CC4)CNCC3`, the Cooperativity in experiment [17] was 1.19; in experiment [18] it was 0.8; in experiment [19], 3; in [16], 1.19. In addition, the Log 1/M came out at 6.5 in [1]; 5.52 in [4]; 5.58 in [6]; 6.7 in experiment [7]; 5.95 in [9]; 6.43 in experiment [10]. Besides, the Log 1/M in experiment [11] amounted to 6.26; in [12], 6.25.

`O=C(c1ccc2c(c1)c1c3c(cc4c1n2C(=O)CC4)CNCC3)N1CCOCC1`: the Log 1/M in experiment [1] is 5.1; in [4], 3.57; in experiment [6], 4.45; in experiment [7] it was 5.21; in experiment [9], 4.7; in [10], 4.71. Also, the Log 1/M in experiment [11] stood at 4.54; in experiment [12], 5.14. The Cooperativity in experiment [20] was less than 0.2; in experiment [21], 0.8; in experiment [3], more than 3; in experiment [22], less than 0.2.

For the molecule `O=C1CCc2cc3c(c4c5cc(O)ccc5n1c24)CCNC3`, the Log 1/M in experiment [1] worked out at 5.79; in [4] it was 5.47; in experiment [6], 4.89; in [7] it was 6.25; in [9], 6.07; in experiment [10], 5.61. Further, the figures for the Log 1/M in experiment [11] and in [12] were 6.05 and 5.65, respectively. The Cooperativity in experiment [20], in experiment [3], in experiment [5] and in experiment [22] was more than 3 throughout.

`COc1ccc2c(c1)c1c3c(cc4c1n2C(=O)CC4)CCNC3`: the Log 1/M in experiment [1] was found to be 6.1; in [4], 4.76; in experiment [6], 5.21; in experiment [7] it was 6.05; in experiment [9] it was 5.91; in [10], 5.87. Further, the Log 1/M in experiment [11] worked out at 5.74; in experiment [12], 5.71. The Cooperativity in experiment [14] worked out at 0.8; in experiment [15], 0.8; in experiment [19] it was 3; in [23], 1.19.

As for `O=C1CCc2cc3c(c4c5cc(O)ccc5n1c24)CNCC3`, the Cooperativity in experiment [17] came out at 1.19; in experiment [24] it was 3; in experiment [25], 3; in experiment [26] it was 1.19. Moreover, the Log 1/M amounted to 6.04 in [1]; 5.12 in experiment [4]; 5.13 in [6]; 5.81 in experiment [7]; 6.07 in experiment [9]; 5.66 in experiment [10]. Moreover, the figures for the Log 1/M in experiment [11] and in experiment [12] were 5.9 and 5.56, respectively.

Turning to `O=C1CCc2cc3c(c4c5cc(Cl)ccc5n1c24)CCNC3`, the Cooperativity in experiment [17] was 1.19; in experiment [27] it was 1.19; in [3], more than 3; in experiment [5], more than 3. Further, the Log 1/M in experiment [1] turned out to be 5.66; in experiment [4], 5.23; in experiment [6], 5.16; in [7], 6.54; in [9] it was 5.58; in experiment [10], 5.93. Further, the values for the Log 1/M in experiment [11] and in experiment [12] were 6.14 and 5.61, respectively.

Consider `COc1cc2c(c(OC)c1OC)c1c3c(cc4c1n2C(=O)CC4)CNCC3`, for which the Log 1/M in experiment [1] stood at 6.74; in [4], 5.33; in experiment [6], 5.63; in [7] it was 6.67; in [9], 6.52; in experiment [10] it was 6.69. The Log 1/M in experiment [11] was 6.21; in experiment [12], 5.97. The Cooperativity turned out to be 1.19 in [13], 0.8 in experiment [14], 0.8 in [15] and 3 in [25].

In the case of `COc1cc2c3c4c(cc5c3n(c2cc1OC)C(=O)CC5)CNCC4`, the Cooperativity in [17] stood at 1.19; in [15], 0.8; in [28], 3; in experiment [19], 3. Besides, the Log 1/M in [1] came to 6.05; in [4], 5.15; in experiment [6], 5.2; in experiment [7] it was 6.47; in experiment [9], 5.81; in experiment [10], 6.15. For the same molecule, the values for the Log 1/M in [11] and in experiment [12] were 6.05 and 4.8, respectively.
